From patent US8629147B2, “Heterocyclic compounds useful in the treatment of neoplastic diseases, inflammatory disorders and immunomodulatory disorders” (ChemBridge Corporation, priority 2005, dated 2014)

biological target: T1, human IGF1R kinase domain (Homo sapiens, UniProt P08069); assay: IGF1R tyrosine phosphorylation inhibition, Alphascreen phosphotyrosine PT66 assay; type: biochemical; conditions: recombinant kinase domain, 1 hour co-incubation, 20 to 0.1 μM
T1 construct: human IGF1R precursor protein corresponding to the amino acids positions 974 through 1293; 6xHis; made in house; host or cells: SF9 insect cells, recombinant baculovirus (Bac-to-Bac System)
T1 sequence (P08069 974-1293): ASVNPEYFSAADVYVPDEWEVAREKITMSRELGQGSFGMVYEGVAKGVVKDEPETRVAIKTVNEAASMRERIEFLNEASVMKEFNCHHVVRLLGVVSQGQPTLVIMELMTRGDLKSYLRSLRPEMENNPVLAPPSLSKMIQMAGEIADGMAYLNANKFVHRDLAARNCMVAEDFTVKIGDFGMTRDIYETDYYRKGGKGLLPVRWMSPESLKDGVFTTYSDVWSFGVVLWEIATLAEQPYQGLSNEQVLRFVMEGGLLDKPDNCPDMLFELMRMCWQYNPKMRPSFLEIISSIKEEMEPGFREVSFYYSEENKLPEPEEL
Protocol: Inhibition of IGF1R tyrosine phosphorylation was measured in the Alphascreen phosphotyrosine PT66 assay kit (Perkin Elmer Life sciences, Catalog number 6760602) according to the manufacturer's instructions. As a source of enzymatically active IGF1r kinase for this assay, SF9 insect cells were infected with recombinant baculovirus (Bac-to-Bac System, Invitrogen, Carlsbad, Calif.) encoding 6×His-tagged kinase domain portion of human IGF1R precursor protein corresponding to the amino acids positions 974 through 1293 (Abbott et al., 1992, J. Biol. Chem. 267:10759-10763) and recombinant kinase protein was purified to homogeneity using two-step chromatography on immobilized Ni^2+ resin (Ni-NTA) and ion-exchange Q-Sepharose column. Biotinylated poly glu-tyr 4:1 (CIS bio-international, catalog number 61GT0BLA) was used for the kinase substrate. Compounds were serially diluted to give a concentration range from 20 to 0.1 μM and co-incubated with IGF1r kinase, biotinylated peptide substrate and alphascreen components for 1 hour and then read in a Perkin-Elmer alphafusion plate reader. A plot of counts per minute versus log concentration of compounds was fitted to a sigmoidal dose response curve using Graphpad Prism software to generate IC50 values (see FIG. 1 for an example).

SMILES	IC50 [nM]
COc1ccc2c(c1)CCc1cnc(-n3cc(C(=O)Nc4ccc(CCN5CCC(N)CC5)cc4)c(N)n3)nc1-2	≤ 5000
CN1CCN(Cc2ccc(NC(=O)c3ccc4[nH]c(-c5cc(Br)ccc5O)nc4c3)cc2)CC1	≤ 5000

tested on: MCF7 human breast tumor cells; assay: CellTiter-Glo luminescent cell viability assay, MCF7; type: cell-based; conditions: 48 hours, 20 to 0.1 μM
Protocol: Cell viability of either MCF7 human breast tumor cells (American Type Culture Collection catalog #HTB 22) or NCI-H929 human plasmacytoma cells (ATCC catalog #CRL-9068) was assessed using the Promega CellTiter-Glo luminescent cell viability assay according to manufacturer's instructions. In brief, cells were plated at 10,000 cells per well in a clear bottom white 96 well microtiter plate (Costar catalog #3604) in 100 μL of cell growth medium. Compounds were then added to the cells to give final concentrations of compound ranging from 20 to 0.1 μM. Cells were incubated 48 hours after which 100 μL per well of celltiter-glo reagent was added and luminescence was measured in a BMG polarstar plate luminometer. A plot of counts per minute versus log concentration of compounds was fitted to a sigmoidal dose response curve using Graphpad Prism software to generate IC50 values.

SMILES	IC50 [nM]
COc1ccc2c(c1)CCc1cnc(-n3cc(C(=O)Nc4ccc(CCN5CCC(N)CC5)cc4)c(N)n3)nc1-2	> 25000
CN1CCN(Cc2ccc(NC(=O)c3ccc4[nH]c(-c5cc(Br)ccc5O)nc4c3)cc2)CC1	10000 to 15000

biological target: T2, recombinant TrkA kinase domain (Homo sapiens, UniProt P04629); assay: TrkA tyrosine kinase activity inhibition, Alphascreen phosphotyrosine PT66 assay; type: biochemical; conditions: compounds 10 to 0.005 μM, 1 hour incubation
T2 construct: commercial preparation of recombinant TrkA kinase domain; purchased Upstate Cell Signaling 14-571
T2 sequence (P04629 510-781 limits assumed): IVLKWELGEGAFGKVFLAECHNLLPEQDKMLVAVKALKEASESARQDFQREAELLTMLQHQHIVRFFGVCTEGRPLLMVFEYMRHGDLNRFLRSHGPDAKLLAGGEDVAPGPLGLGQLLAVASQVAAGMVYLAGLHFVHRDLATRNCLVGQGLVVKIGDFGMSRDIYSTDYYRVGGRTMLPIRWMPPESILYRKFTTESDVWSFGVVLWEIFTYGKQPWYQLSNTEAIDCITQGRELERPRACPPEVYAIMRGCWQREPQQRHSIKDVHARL
Protocol: Inhibition of TrkA tyrosine kinase activity was measured using the Alphascreen phosphotyrosine PT66 assay kit (Perkin Elmer Life Sciences, Catalog Number 6760602) according to the manufacturer's instructions. As a source of enzymatically active TrkA kinase for this assay, the commercial preparation of recombinant TrkA kinase domain (Upstate Cell Signaling, Catalog Number 14-571) was used. Biotinylated poly Glu-Tyr 4:1 (CIS bio-international, catalog number 61GT0BLA) was used for the kinase substrate. Compounds were serially diluted to give a concentration range from 10 to 0.005 μM and co-incubated with TrkA kinase, biotinylated peptide substrate and Alphascreen kit components for 1 hour and then read in a Perkin-Elmer Alpha Fusion plate reader. A plot of counts per minute versus log concentration of compounds was fitted to a sigmoidal dose response curve using Graphpad Prism software to generate IC50 values.

SMILES	IC50 [nM]
CN1CCN(CCc2ccc(NC(=O)c3ccc4nc(-c5cc(-c6cccnc6O)ccc5O)[nH]c4c3)cc2)CC1	20 to 200
COc1ncccc1-c1ccc(O)c(-c2nc3cc(C(=O)NCc4ccc(CN5CCN(C)CC5)cc4)ccc3[nH]2)c1	> 200
COc1ncccc1-c1ccc(O)c(-c2nc3ccc(C(=O)NC4CCCC(N)C4)cc3[nH]2)c1 (stereo not shown)	> 200
COc1ncccc1-c1ccc(O)c(-c2nc3ccc(C(=O)NCc4ccc5c(c4)CCCN5C)cc3[nH]2)c1	> 200
COc1ncccc1-c1ccc(O)c(-c2nc3ccc(C(=O)NCC4CCN(Cc5ccccc5)C4)cc3[nH]2)c1 (stereo not shown)	20 to 200
COc1ncccc1-c1ccc(O)c(-c2nc3ccc(C(=O)NCCc4c[nH]cn4)cc3[nH]2)c1	20 to 200
COCCN1CCC(CNC(=O)c2ccc3nc(-c4cc(-c5cccnc5OC)ccc4O)[nH]c3c2)C1 (stereo not shown)	20 to 200
COc1ncccc1-c1ccc(O)c(-c2nc3ccc(C(=O)NCC4CCN(CCO)CC4)cc3[nH]2)c1	< 20
COc1ncccc1-c1ccc(O)c(-c2nc3ccc(C(=O)NCCC4CCCN4C)cc3[nH]2)c1 (stereo not shown)	20 to 200
COc1ncccc1-c1ccc(O)c(-c2nc3ccc(C(=O)NCCCN4CCCCC4C)cc3[nH]2)c1 (stereo not shown)	< 20
CCN(CC)CCCNC(=O)c1ccc2nc(-c3cc(-c4cccnc4OC)ccc3O)[nH]c2c1	< 20
COc1ncccc1-c1ccc(O)c(-c2nc3ccc(C(=O)NCC4CCCC(CN)C4)cc3[nH]2)c1 (stereo not shown)	> 200
COc1ncccc1-c1ccc(O)c(-c2nc3ccc(C(=O)NCCCN4CCN(C)CC4)cc3[nH]2)c1	> 200
COc1ncccc1-c1ccc(O)c(-c2nc3ccc(C(=O)NCCCCCN(C)C)cc3[nH]2)c1	> 200
COc1ncccc1-c1ccc(O)c(-c2nc3ccc(C(=O)Nc4ccc(OCCCN5CCN(C)CC5)cc4)cc3[nH]2)c1	> 200
COc1ncccc1-c1ccc(O)c(-c2nc3ccc(C(=O)Nc4ccc(OCCN5CCN(C)CC5)cc4)cc3[nH]2)c1	> 200
COc1ncccc1-c1ccc(O)c(-c2nc3ccc(C(=O)Nc4ccc(CCN5CCN(c6ccncc6)CC5)cc4)cc3[nH]2)c1	20 to 200
COc1ncccc1-c1ccc(O)c(-c2nc3cc(C(=O)NCCc4c[nH]cn4)c(F)cc3[nH]2)c1	< 20
COC(=O)[C@H](Cc1c[nH]cn1)NC(=O)c1ccc2[nH]c(-c3cc(-c4cccnc4OC)ccc3O)nc2c1	20 to 200
COc1ncccc1-c1ccc(O)c(-c2nc3cc(C(=O)N[C@@H](Cc4c[nH]cn4)C(N)=O)ccc3[nH]2)c1	< 20
COc1ncccc1-c1ccc(O)c(-c2nc3cc(C(=O)N[C@H](CO)Cc4c[nH]cn4)ccc3[nH]2)c1	< 20
COc1ncccc1-c1ccc(O)c(-c2nc3cc(C(=O)N[C@@H](CO)Cc4c[nH]cn4)ccc3[nH]2)c1	< 20
COc1ncccc1-c1ccc(O)c(-c2nc3cc(C(=O)N[C@@H](C)Cc4c[nH]cn4)ccc3[nH]2)c1	> 200
O=C(NCCc1c[nH]cn1)c1cc2nc(-c3cc(-c4cccnc4O)ccc3O)[nH]c2cc1Cl	< 20
CN1CCN(CCc2ccc(NC(=O)c3cc4nc(-c5cc(-c6cccnc6O)ccc5O)[nH]c4cc3Cl)cc2)CC1	20 to 200
COc1cc(O)c(-c2nc3ccc(C(=O)NCCc4c[nH]cn4)cc3[nH]2)cc1-c1cccnc1OC	20 to 200
CCN1CCC2(CCN(CCc3ccc(NC(=O)c4ccc5[nH]c(-c6cc(-c7cccnc7O)ccc6O)nc5c4)cc3)C2)C1 (stereo not shown) [drawing 1792]	< 20
CN1CCCC2(CCCN(CCc3ccc(NC(=O)c4ccc5nc(-c6cc(-c7cccnc7O)ccc6O)[nH]c5c4)cc3)C2)C1 (stereo not shown) [drawing 1793]	> 200
COc1ncccc1-c1ccc(O)c(-c2nc3ccc(C(=O)NCCCCN4CCCC4)cc3[nH]2)c1 [drawing 1800]	< 20
COc1ncccc1-c1ccc(O)c(-c2nc3ccc(C(=O)NCCCCN4CCCC4)cc3[nH]2)c1 [drawing 1807]	> 200
